Measured values: the NIST ThermoML archive (doi:10.1021/je0601208)

Columns and labels:
[1] = xn = mol fraction of the nth substance listed
[2] = refractive index (Na D-line) (dimensionless); xn = mol fraction of the nth substance listed; conditions: 100.5 kPa, Liquid, Standard Abbe refractometry

CCCCCC(=O)OCC [ethyl hexanoate] + CCO
Conditions	refractive index, 288.15 K	refractive index, 298.15 K	refractive index, 308.15 K	refractive index, 318.15 K	surface tension liquid-gas, 288.15 K [mN/m]	surface tension liquid-gas, 298.15 K [mN/m]	surface tension liquid-gas, 308.15 K [mN/m]	surface tension liquid-gas, 318.15 K [mN/m]
[1], x1 = 0.05	–	–	–	–	23.4	22.7	21.8	20.9
[1], x1 = 0.1	–	–	–	–	23.8	23	22.1	21.2
[1], x1 = 0.15	–	–	–	–	24.1	23.2	22.4	21.5
[1], x1 = 0.2	–	–	–	–	24.3	23.5	22.6	21.7
[1], x1 = 0.25	–	–	–	–	24.5	23.7	22.8	21.9
[1], x1 = 0.3	–	–	–	–	24.7	23.9	23	22
[1], x1 = 0.35	–	–	–	–	24.9	24	23.1	22.2
[1], x1 = 0.4	–	–	–	–	25.1	24.2	23.3	22.3
[1], x1 = 0.45	–	–	–	–	25.2	24.3	23.4	22.5
[1], x1 = 0.5	–	–	–	–	25.4	24.4	23.5	22.6
[1], x1 = 0.55	–	–	–	–	25.5	24.5	23.6	22.7
[1], x1 = 0.6	–	–	–	–	25.6	24.6	23.7	22.8
[1], x1 = 0.65	–	–	–	–	25.7	24.7	23.8	22.9
[1], x1 = 0.7	–	–	–	–	25.8	24.9	23.9	23
[1], x1 = 0.75	–	–	–	–	25.9	25	24	23.1
[1], x1 = 0.8	–	–	–	–	26	25.1	24.1	23.2
[1], x1 = 0.85	–	–	–	–	26.1	25.1	24.2	23.3
[1], x1 = 0.9	–	–	–	–	26.2	25.2	24.3	23.4
[1], x1 = 0.95	–	–	–	–	26.3	25.3	24.4	23.5
[1], x1 = 1	–	–	–	–	26.4	25.4	24.5	23.6
[2], x1 = 0.05	1.36942	1.36535	1.36109	1.35703	–	–	–	–
[2], x1 = 0.1	1.37451	1.37034	1.36602	1.36185	–	–	–	–
[2], x1 = 0.15	1.37883	1.37461	1.37024	1.36601	–	–	–	–
[2], x1 = 0.2	1.38253	1.37826	1.37388	1.3696	–	–	–	–
[2], x1 = 0.25	1.38577	1.38146	1.37706	1.37274	–	–	–	–
[2], x1 = 0.3	1.38864	1.38429	1.37986	1.3755	–	–	–	–
[2], x1 = 0.35	1.39119	1.38681	1.38236	1.37795	–	–	–	–
[2], x1 = 0.4	1.39347	1.38907	1.3846	1.38016	–	–	–	–
[2], x1 = 0.45	1.39553	1.39111	1.38663	1.38216	–	–	–	–
[2], x1 = 0.5	1.3974	1.39296	1.38847	1.38398	–	–	–	–
[2], x1 = 0.55	1.3991	1.39465	1.39016	1.38564	–	–	–	–
[2], x1 = 0.6	1.40066	1.3962	1.3917	1.38716	–	–	–	–
[2], x1 = 0.65	1.4021	1.39763	1.39312	1.38857	–	–	–	–
[2], x1 = 0.7	1.40343	1.39895	1.39444	1.38988	–	–	–	–
[2], x1 = 0.75	1.40466	1.40019	1.39568	1.39111	–	–	–	–
[2], x1 = 0.8	1.40579	1.40133	1.39682	1.39225	–	–	–	–
[2], x1 = 0.85	1.40684	1.40238	1.39787	1.3933	–	–	–	–
[2], x1 = 0.9	1.4078	1.40334	1.39882	1.39426	–	–	–	–
[2], x1 = 0.95	1.40868	1.40422	1.39972	1.39515	–	–	–	–
[2], x1 = 1	1.4095	1.40504	1.40055	1.39597	–	–	–	–
